Data from patent US20220288048A1, “PIMAVANSERIN FOR TREATING SCHIZOPHRENIA OR FOR TREATING PSYCHOSIS SECONDARY TO NEURODEGENERATIVE DISORDERS OR DEPRESSIVE DISORDER” (ACADIA Pharmaceuticals Inc., priority 2019, published 2022).

Test system: adult schizophrenia patients with a persistent inadequate response to their existing antipsychotic therapy
Experiment: 6-week study of pimavanserin or placebo added to existing antipsychotic treatment: efficacy rating scales
Format: in vivo, human
Set-up: key to Marder Disorg, LSM Change from Baseline at W6 / Marder Uncntl, LSM Change from Baseline at W6 / Marder AnxDep, LSM Change from Baseline at W6: PANSS factor score points; PANSS items rated on a 7-point scale; CGI-I, LSM at W6 (column head: Change from Baseline at W6) / DAI-10, LSM Change from Baseline at W6 / KSS, LSM Change from Baseline at W6 / CDSS, LSM Change from Baseline at W6 / SF36 MH, LSM Change from Baseline at W6: scale not given here
Protocol: The effect of pimavanserin as an adjunctive treatment in adult schizophrenia patients with a persistent inadequate response (i.e., partial responders) to their existing antipsychotic therapy was tested. 396 patients with moderate-to-severe psychotic symptoms were randomized to receive either pimavanserin or placebo added to existing antipsychotic treatment. […] Dosages of background oral antipsychotics could not be changed within four weeks of screening and dosages of long-acting injectables (LAI) could not be changed within 16 weeks of screening. […] Patients were administered a daily dose of pimavanserin or a placebo for six weeks. The dose started at 20 mg and could be adjusted to 34 mg or 10 mg between weeks 1 and 3. The majority of patients (56%) completed the study at the highest dose level. Patients were evaluated at baseline and on a weekly basis according to the clinical rating scale Positive and Negative Symptom Scale (PANSS). The PANSS is a 30-item, 7-point rating system that was developed to cover a range of negative symptoms not adequately measured by the Brief Psychiatric Rating Scale. It has sections that specifically measure positive symptoms, negative symptoms, and general psychopathology in schizophrenic subjects. The PANSS is widely used in trials of antipsychotic drug treatment, and has been formally validated for such use. A subset of 5 of the PANSS factors, the […] factors, were also evaluated. Other clinical rating scales that were assessed were the Clinical Global Impression Scale (CGI), Personal and Social Performance Scale (PSP), drug attitude inventory (DAI-10), Karolinska Sleepiness Scale (KSS), Calgary Depression Scale for Schizophrenia (CDSS), 36-item Short Form Physical Health evaluation ([…]) and 36-item Short Form Mental Health evaluation […].

[1] = European sites subgroup, Week 6
[2] = European sites subgroup, Week 6, listed as pimavanserin
[3] = FAS population, W6, Missing as Worsen

CC(C)COc1ccc(CNC(=O)N(Cc2ccc(F)cc2)C2CCN(C)CC2)cc1 [Pimavanserin, N-(4-Fluorophenylmethyl)-N-(1-methylpiperidin-4-yl)-N′-(4-(2-methylpropyloxy)phenylmethyl)carbamide]
PANSS Negative Symptoms Subscale, LS Mean Change at Week 6 (Europe subgroup): −2.9
PANSS Positive Symptoms Subscale, LS Mean Change at Week 6 (Europe subgroup): −5.5
PANSS Negative Symptoms Subscale, Cohen's d Effect Size (Europe subgroup, Week 6): 0.296
PANSS Negative Symptoms Subscale, LS Mean (SE) Difference (Europe subgroup, Week 6): −1.1
PANSS Positive Symptoms Subscale, Cohen's d Effect Size (Europe subgroup, Week 6): 0.195
PANSS Positive Symptoms Subscale, LS Mean (SE) Difference (Europe subgroup, Week 6): −0.8 (0.49)
CGI-S score, Change from Baseline to Week 6, Mean (SE) (European sites subgroup): −0.8 (0.07)
CGI-S score, Week 6, Mean (SE) (European sites subgroup): 3.8 (0.08)
PANSS total score, Change from Baseline to Week 6, Mean (SE) (European sites subgroup): −16.0 (1.06)
PANSS total score, Week 6, Mean (SE) (European sites subgroup): 73.2 (1.18)
CGI-S score, Diff in MMRM LSM (SE), pimavanserin − placebo [1]: −0.2 (0.09)
CGI-S score, Effect Size (Cohen's d) [1]: 0.266
PANSS total score, Diff in MMRM LSM (SE), pimavanserin − placebo [1]: −3.1 (1.37)
PANSS total score, Effect Size (Cohen's d) [1]: 0.261
CGI-S score, Diff in MMRM LSM (SE), pimavanserin − placebo [2]: −0.2
PANSS total score, Diff in MMRM LSM (SE), pimavanserin − placebo [2]: −3.1
CDSS, LSM Change from Baseline at W6 (FAS Population, OC, ANCOVA): −0.6
DAI-10, LSM Change from Baseline at W6 (FAS Population, OC, ANCOVA): 0.4
PSP, LSM Change from Baseline at W6 (FAS Population, OC, ANCOVA): 6.9
SF36 MH, LSM Change from Baseline at W6 (FAS Population, OC, ANCOVA): 5.6
SF36 PH, LSM Change from Baseline at W6 (FAS Population, OC, ANCOVA): 0.46
CDSS, Effect Size (FAS Population, OC, ANCOVA, W6): 0.09
CDSS, Treatment group Comparison (PIM-PBO) LSM (FAS Population, OC, ANCOVA, W6): −0.2
DAI-10, Effect Size (FAS Population, OC, ANCOVA, W6): Neg
DAI-10, Treatment group Comparison (PIM-PBO) LSM (FAS Population, OC, ANCOVA, W6): −0.0
PSP, Effect Size (FAS Population, OC, ANCOVA, W6): 0.15
PSP, Treatment group Comparison (PIM-PBO) LSM (FAS Population, OC, ANCOVA, W6): 1.3
SF36 MH, Effect Size (FAS Population, OC, ANCOVA, W6): 0.11
SF36 MH, Treatment group Comparison (PIM-PBO) LSM (FAS Population, OC, ANCOVA, W6): 1.0
SF36 PH, Effect Size (FAS Population, OC, ANCOVA, W6): 0.00
SF36 PH, Treatment group Comparison (PIM-PBO) LSM (FAS Population, OC, ANCOVA, W6): 0.0
CGI-I, LSM at W6 (column head: Change from Baseline at W6) (FAS Population, OC, MMRM): 2.9
KSS, LSM Change from Baseline at W6 (FAS Population, OC, MMRM): −0.5
Marder AnxDep, LSM Change from Baseline at W6 (FAS Population, OC, MMRM): −2.3
Marder Disorg, LSM Change from Baseline at W6 (FAS Population, OC, MMRM): −2.5
Marder Pos, LSM Change from Baseline at W6 (FAS Population, OC, MMRM): −5.5
Marder Uncntl, LSM Change from Baseline at W6 (FAS Population, OC, MMRM): −1.7
PANSS GenPsy, LSM Change from Baseline at W6 (FAS Population, OC, MMRM): −7.2
PANSS Pos, LSM Change from Baseline at W6 (FAS Population, OC, MMRM): −5.4
CGI-I, Effect Size (FAS Population, OC, MMRM, W6): 0.08
CGI-I, Treatment group Comparison (PIM-PBO) LSM (FAS Population, OC, MMRM, W6): −0.1
KSS, Effect Size (FAS Population, OC, MMRM, W6): 0.23
KSS, Treatment group Comparison (PIM-PBO) LSM (FAS Population, OC, MMRM, W6): −0.3
Marder AnxDep, Effect Size (FAS Population, OC, MMRM, W6): 0.02
Marder AnxDep, Treatment group Comparison (PIM-PBO) LSM (FAS Population, OC, MMRM, W6): −0.0
Marder Disorg, Effect Size (FAS Population, OC, MMRM, W6): 0.18
Marder Disorg, Treatment group Comparison (PIM-PBO) LSM (FAS Population, OC, MMRM, W6): −0.5
Marder Pos, Effect Size (FAS Population, OC, MMRM, W6): 0.16
Marder Pos, Treatment group Comparison (PIM-PBO) LSM (FAS Population, OC, MMRM, W6): −0.8
Marder Uncntl, Effect Size (FAS Population, OC, MMRM, W6): 0.01
Marder Uncntl, Treatment group Comparison (PIM-PBO) LSM (FAS Population, OC, MMRM, W6): −0.0
PANSS GenPsy, Effect Size (FAS Population, OC, MMRM, W6): 0.12
PANSS GenPsy, Treatment group Comparison (PIM-PBO) LSM (FAS Population, OC, MMRM, W6): −0.8
PANSS Pos, Effect Size (FAS Population, OC, MMRM, W6): 0.12
PANSS Pos, Treatment group Comparison (PIM-PBO) LSM (FAS Population, OC, MMRM, W6): −0.5
CGI-I no Chg or Worsened, (%) [3]: (34.7) %
CGI-I no Chg or Worsened, Diff in % (PIM − PBO) [3]: 4.1%
